According to ChEMBL document CHEMBL3832761, “MMV Pathogen Box Bioactivity Data” (2017):
Converted amounts (≈) assume the structure as drawn. The source made the active and inactive calls. The calls are words filed in the database; no cut-off is given here.

Tests used:
[1] = tested on: Mycobacterium tuberculosis; assay: AntiMycobacterium tuberculosis activity 2-week Alamar Blue 7H9/ADC/Tw MIC (uM); format: functional; settings: 336 h
[2] = tested on: HepG2; assay: HepG2 CC50 (uM) Cytotoxicity; format: functional; settings: Homo sapiens
[3] = tested on: Mycobacterium tuberculosis; assay: AntiMycobacterium tuberculosis activity 1-week 7H9/cholesterol/BSA/Tx MIC (uM); format: functional; settings: 168 h
[4] = tested on: Mycobacterium tuberculosis; assay: AntiMycobacterium tuberculosis activity 2-week 7H9/DPPC/cholesterol/BSA/Tx MIC (uM); format: functional; settings: 336 h
[5] = tested on: Mycobacterium tuberculosis; assay: AntiMycobacterium tuberculosis activity 1-week 7H9/DPPC/cholesterol/BSA/Tx MIC (uM); format: functional; settings: 168 h
[6] = tested on: Mycobacterium tuberculosis; assay: AntiMycobacterium tuberculosis activity day 21 in 7H9/2.5mM butyrate/pH6/0.1mM nitrite MIC90 (uM); format: functional; settings: 504 h
[7] = tested on: Mycobacterium tuberculosis; assay: (§1) AntiMycobacterium tuberculosis activity day 10 in 7H9/2.5mM butyrate/pH6/0.1mM nitrite MIC90 (uM); format: functional; settings: 240 h
[8] = tested on: Mycobacterium tuberculosis; assay: AntiMycobacterium tuberculosis activity Replicating form: Average MIC90 (uM); format: functional
[9] = tested on: Mycobacterium tuberculosis; assay: AntiMycobacterium tuberculosis activity day 21 MIC99 in 7H9/2.5mM butyrate/pH6/0.1mM nitrite MIC99 (uM); format: functional; settings: 504 h
[10] = tested on: Mycobacterium tuberculosis; assay: AntiMycobacterium tuberculosis activity 2-week GAST/Fe MIC (uM); format: functional; settings: 336 h
[11] = tested on: Mycobacterium tuberculosis; assay: AntiMycobacterium tuberculosis activity 2-week Alamar Blue 7H9/cholesterol/BSA/Tx MIC (uM); format: functional; settings: 336 h
[12] = tested on: Mycobacterium tuberculosis; assay: AntiMycobacterium tuberculosis activity 1-week GAST/Fe MIC (uM); format: functional; settings: 168 h
[13] = tested on: Mycobacterium tuberculosis; assay: AntiMycobacterium tuberculosis activity Non-Replicating form: Average MIC90 (uM); format: functional
[14] = tested on: Mycobacterium tuberculosis; assay: AntiMycobacterium tuberculosis activity 2-week 7H9/ADC/Tw MIC (uM); format: functional; settings: 336 h
[15] = tested on: Mycobacterium tuberculosis; assay: AntiMycobacterium tuberculosis activity 2-week 7H9/glucose/BSA/Tx MIC (uM); format: functional; settings: 336 h
[16] = tested on: Mycobacterium tuberculosis; assay: as §1; format: functional; settings: 240 h; remark: listed apart in the source
[17] = tested on: Mycobacterium tuberculosis; assay: AntiMycobacterium tuberculosis activity 1-week 7H9/glucose/BSA/Tx MIC (uM); format: functional; settings: 168 h
[18] = tested on: Mycobacterium tuberculosis; assay: AntiMycobacterium tuberculosis activity 1-week 7H9/ADC/Tw MIC (uM); format: functional; settings: 168 h
[19] = tested on: HepG2; assay: Cytotoxicity data HepG2 CC20 (uM); format: functional
[20] = tested on: Plasmodium falciparum; assay: Antimalarial activity: Gametocytes Plasmodium falciparum NF54 Gametocytes Stage V: inhibition at 10 uM (%); format: functional
[21] = tested on: Plasmodium berghei; assay: Antimalarial activity: Liver Stage Plasmodium berghei sporozoite Luciferase assay: inhibition at 10 uM (%); format: functional
[22] = tested on: Plasmodium falciparum; assay: Antimalarial activity: Asexual Blood Stage Plasmodium falciparum 3D7 IC50 (uM); format: functional, organism-based
[23] = tested on: Plasmodium falciparum; assay: Antimalarial activity: Asexual Blood Stage Plasmodium falciparum W2 IC50 (uM); format: functional, organism-based

SMILES	MIC [1] [µM]	CC50 [2] [µM]	MIC [3] [µM]	MIC [4] [µM]	MIC [5] [µM]	MIC90 [6] [µM]	MIC90 [7] [µM]	MIC90 [8] [µM]	MIC [9] [µM]	MIC [10] [µM]	MIC [11] [µM]	MIC [12] [µM]	MIC90 [13] [µM]	MIC [14] [µM]	MIC [15] [µM]	MIC90 [16] [µM]	MIC [17] [µM]	MIC [18] [µM]	other results
Nc1c2c(nc3sc4c(c13)CCCC4)CCCC2	12.5 (≈ 3.23 µg/mL)	34.9	12.5 (≈ 3.23 µg/mL)	25 (≈ 6.46 µg/mL)	12.5 (≈ 3.23 µg/mL)	50 (≈ 12.9 µg/mL)	50 (≈ 12.9 µg/mL)	52 (≈ 13.4 µg/mL)	> 50	2.3 (≈ 0.594 µg/mL)	25 (≈ 6.46 µg/mL)	1.56 (≈ 0.403 µg/mL)	94.6 (≈ 24.4 µg/mL)	37 (≈ 9.56 µg/mL)	25 (≈ 6.46 µg/mL)	> 50	19 (≈ 4.91 µg/mL)	25 (≈ 6.46 µg/mL)	
c1coc(CNc2nc(N3CCCCC3)nc3ccccc23)c1	25 (≈ 7.71 µg/mL)	18.6	4.7 (≈ 1.45 µg/mL)	9.4 (≈ 2.9 µg/mL)	6.25 (≈ 1.93 µg/mL)	25 (≈ 7.71 µg/mL)	12.5 (≈ 3.85 µg/mL)	8.41 (≈ 2.59 µg/mL)	25 (≈ 7.71 µg/mL)	9.4 (≈ 2.9 µg/mL)	6.25 (≈ 1.93 µg/mL)	9.4 (≈ 2.9 µg/mL)	27.8 (≈ 8.58 µg/mL)	25 (≈ 7.71 µg/mL)	12.5 (≈ 3.85 µg/mL)	12.5 (≈ 3.85 µg/mL)	6.25 (≈ 1.93 µg/mL)	19 (≈ 5.86 µg/mL)	
CC(C)=CCC/C(C)=C\CNCCNC1C2CC3CC(C2)CC1C3 (stereo not drawn)	1.2 (≈ 0.397 µg/mL)	7.1	0.39 (≈ 0.129 µg/mL)	0.6 (≈ 0.198 µg/mL)	0.39 (≈ 0.129 µg/mL)	> 50	> 50	1.24 (≈ 0.41 µg/mL)	> 50	0.78 (≈ 0.258 µg/mL)	0.78 (≈ 0.258 µg/mL)	0.39 (≈ 0.129 µg/mL)	5.3 (≈ 1.75 µg/mL)	1.2 (≈ 0.397 µg/mL)	1.2 (≈ 0.397 µg/mL)	> 50	0.6 (≈ 0.198 µg/mL)	0.78 (≈ 0.258 µg/mL)	
O=C(c1cc2ccccc2o1)N1CCN(Cc2ccc3c(c2)OCO3)CC1	12.5 (≈ 4.56 µg/mL)	> 100	37 (≈ 13.5 µg/mL)	50 (≈ 18.2 µg/mL)	19 (≈ 6.92 µg/mL)	> 50	50 (≈ 18.2 µg/mL)	> 100	> 50	0.2 (≈ 0.0729 µg/mL)	6.25 (≈ 2.28 µg/mL)	0.1 (≈ 0.0364 µg/mL)	16.6 (≈ 6.07 µg/mL)	> 50	> 50	> 50	> 50	> 50	
CCc1c(C)nc(-n2nc(C)cc2NC(=O)c2ccccc2SC)[nH]c1=O	37 (≈ 14.2 µg/mL)	1.3	6.25 (≈ 2.4 µg/mL)	> 50	3.13 (≈ 1.2 µg/mL)	> 50	3.12 (≈ 1.2 µg/mL)	> 100	> 50	0.2 (≈ 0.0767 µg/mL)	> 50	0.1 (≈ 0.0383 µg/mL)	1.25 (≈ 0.479 µg/mL)	> 50	> 50	> 50	9.4 (≈ 3.6 µg/mL)	> 50	
Nc1ncnc2c1ncn2C[C@@H](O)[C@@H](O)C(=O)O [ERITADENINE]																			CC20 [19]: >80 µM
O=C(NCCN1CCCC1)c1cc(NCCCCN2CCC(F)(F)CC2)nc2ccc(Cl)cc12																			inhibition [20]: Series known to be active; inhibition [21]: Series known to be active; IC50 [22]: 0.01 µM
COc1ccc(-c2cc(NC(=O)c3ccc(F)cc3Cl)ccc2OC)cc1	50 (≈ 19.3 µg/mL)	> 100	25 (≈ 9.65 µg/mL)							19 (≈ 7.33 µg/mL)		3.13 (≈ 1.21 µg/mL)	67.7 (≈ 26.1 µg/mL)						
Cc1cc(Nc2ccc(C(F)(F)F)cc2)n2ccnc2n1																			IC50 [23]: 0.36 µM; inhibition [20]: Series known to be inactive; inhibition [21]: Series known to be active; IC50 [22]: 0.38 µM
O=C(C1CCN(c2nnnn2-c2ccccc2)CC1)N1CCc2ccccc2C1																			CC20 [19]: >80 µM; inhibition [22]: inactive
O=C(COc1cccc(F)c1)Nc1nc(-c2ccccn2)cs1	50 (≈ 16.5 µg/mL)		19 (≈ 6.26 µg/mL)	50 (≈ 16.5 µg/mL)	19 (≈ 6.26 µg/mL)	25 (≈ 8.23 µg/mL)	12.5 (≈ 4.12 µg/mL)	84.4 (≈ 27.8 µg/mL)	> 50	2.3 (≈ 0.758 µg/mL)	37 (≈ 12.2 µg/mL)	1.2 (≈ 0.395 µg/mL)	27.5 (≈ 9.07 µg/mL)	50 (≈ 16.5 µg/mL)	37 (≈ 12.2 µg/mL)	> 50	19 (≈ 6.26 µg/mL)	37 (≈ 12.2 µg/mL)	
